From patent US20250127907A1, “PARP INHIBITORS” (Stablix, Inc., priority 2023, published 2025) come the findings set out here.

The structures appear in SMILES notation.

In experiment [1] the target is T1, PARP1 (Homo sapiens, UniProt P09874). Put plainly: PARP1-enzyme assay (NAD/NADH-Glo biochemical assay). The settings on record: recombinant PARP1, NAD+ consumption. How it is done:
The PARP enzyme catalyzes the transfer of ADP-Ribose from NAD+ onto PAR chains/histone substrates. The catalytic cycle is monitored indirectly with the NAD/NADH-Glo Assay kit from Promega. […] NAD+ consumed is determined by comparison to the no enzyme control.
• Recombinant PARP1 • NAD+/NAHD-Glow assay Kit • Activated DNA, 10 μg/mL • NAD+(Nicotinamide Adenine Dinucleotide), 500 nM • Protein substrate for PARP1: Core Histone from chicken, 10 μg/mL
The letter codes for the PARP1-enzyme assay include: A (<1 nM), B (>1-10 nM), C (>10-100 nM), D (>100-1000 nM), E (>1000 nM), and “-” is not tested. The letter codes for the PARP trapping assay, and parylation assay include: A (<10 nM), B (>10-100 nM), C (>100-1000 nM), […], E (>10000 nM), and “-” is not tested.
Target sequence in this assay (P09874 whole entry, species assumed): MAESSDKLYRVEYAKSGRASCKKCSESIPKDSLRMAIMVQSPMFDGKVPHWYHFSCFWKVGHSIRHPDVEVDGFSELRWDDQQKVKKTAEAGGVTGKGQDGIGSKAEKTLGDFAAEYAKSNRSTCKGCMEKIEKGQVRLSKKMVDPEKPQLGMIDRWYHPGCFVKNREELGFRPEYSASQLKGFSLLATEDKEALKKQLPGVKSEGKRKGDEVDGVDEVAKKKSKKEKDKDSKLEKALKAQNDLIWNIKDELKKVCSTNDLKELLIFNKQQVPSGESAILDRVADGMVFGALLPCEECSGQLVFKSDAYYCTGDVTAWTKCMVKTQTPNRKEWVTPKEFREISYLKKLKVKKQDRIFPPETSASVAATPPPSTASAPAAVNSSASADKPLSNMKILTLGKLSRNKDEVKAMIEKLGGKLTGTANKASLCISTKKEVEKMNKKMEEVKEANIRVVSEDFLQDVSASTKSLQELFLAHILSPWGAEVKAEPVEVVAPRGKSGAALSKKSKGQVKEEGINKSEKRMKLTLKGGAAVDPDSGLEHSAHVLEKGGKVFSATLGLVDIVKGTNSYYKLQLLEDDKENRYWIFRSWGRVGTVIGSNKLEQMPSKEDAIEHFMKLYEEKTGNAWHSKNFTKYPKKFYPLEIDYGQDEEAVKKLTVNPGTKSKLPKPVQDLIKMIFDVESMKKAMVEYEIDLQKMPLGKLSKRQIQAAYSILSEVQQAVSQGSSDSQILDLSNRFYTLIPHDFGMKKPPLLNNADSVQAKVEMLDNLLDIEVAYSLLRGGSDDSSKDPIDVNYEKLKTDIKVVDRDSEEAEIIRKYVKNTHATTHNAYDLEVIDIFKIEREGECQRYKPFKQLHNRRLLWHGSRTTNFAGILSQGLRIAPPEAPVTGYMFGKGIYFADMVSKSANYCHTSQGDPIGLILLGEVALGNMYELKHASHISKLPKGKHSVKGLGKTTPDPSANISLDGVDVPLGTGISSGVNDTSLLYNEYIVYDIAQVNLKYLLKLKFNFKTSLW

In experiment [2] the test system is Poly/Mono-ADP Ribose in U2OS cells. Put plainly: PAR in cell western assay (parylation) in U2OS cells. The format is cell-based. The settings on record: Homo sapiens; U2OS cells, 6 hrs, 2 mM H2O2; read-out: Parylation (U2OS). A digest of the protocol:
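U2OS cells treated with compound for 6 h, then 2 mM H2O2 for 10 min to induce DNA damage. After methanol fixation, cells stained overnight at 4 °C with anti-mono/poly-ADP-ribose antibody and imaged by infrared in-cell western, normalized to CellTag 700; reported as % control inhibition.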

Experiment [3] relates to A2780 cells. The experiment is described as follows: Cell proliferation assay (A2780). The format is cell-based. To be noted: Homo sapiens, 168 h, 7 days.
In experiment [4] the test system is HCC1806 cells. Put plainly: Cell proliferation assay (HCC1806). The format is cell-based. The settings on record: Homo sapiens, 168 h, 7 days.
For experiment [5], the system named is MDA-MB-436 cells. The experiment is described as follows: Cell proliferation assay (MDA-MB-436). The format is cell-based. The settings on record: Homo sapiens, 168 h, 7 days.
Experiment [6] concerns the target T1, PARP1. Put plainly: PARP trapping assay in U2OS cells. Type of experiment: cell-based. Further details: endogenous in cells; host or cells: U2OS. To be noted: U2OS cells, MMS, 4 hrs; read-out: PARP Trapping (U2OS). In a few lines:
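U2OS cells co-treated with compounds and MMS for 4 h, then soluble proteins extracted with 0.5% Triton X-100, MeOH-fixed and immunostained for PARP1. Chromatin-bound PARP1 quantified as AF488 intensity per DAPI-segmented nucleus; potencies reported as letter-code bins.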
Target sequence in this assay (P09874 whole entry): as the sequence (P09874 whole entry, species assumed) above

On to `CCc1cccc(-c2cc(F)c(C(=O)N3CCC(CN4CCN(CC(=O)N5CCN(C(=O)c6cc(Cc7n[nH]c(=O)c8ccccc78)ccc6F)CC5)CC4)CC3)c(F)c2)c1` [Compound I-410], for which the IC50 in experiment [1] was less than 1 nM; in experiment [2], 10 to 100 nM; in experiment [3], 10 to 100 nM; in experiment [4] it was 10 to 100 nM; in experiment [5] it was less than 10 nM; in experiment [6], 10 to 100 nM.

In the case of `CCc1cccc(-c2cnc(C(=O)N3CCC(CN4CCN(CC(=O)N5CCN(C(=O)c6cc(Cc7n[nH]c(=O)c8ccccc78)ccc6F)CC5)CC4)CC3)c(NC(C)=O)c2)c1` [Compound I-367], the IC50 in experiment [1] was less than 1 nM; in experiment [2], 100 to 1000 nM; in experiment [3], 100 to 1000 nM; in experiment [4] it was 100 to 1000 nM; in experiment [5] it was 100 to 1000 nM; in experiment [6] it was 100 to 1000 nM.

For `O=C(N[C@@H](C(=O)N1CCC(OC2CCN(CC(=O)N3CCN(C(=O)c4cc(Cc5n[nH]c(=O)c6ccccc56)ccc4F)CC3)CC2)CC1)C1CCCCC1)c1cccc(C2CCCN(C(=O)C3CC3)C2)c1F` (stereo partly drawn) [Compound I-457], the IC50 is less than 1 nM in experiment [1]; 100 to 1000 nM in experiment [2]; 10 to 100 nM in experiment [3]; 10 to 100 nM in experiment [4]; less than 10 nM in experiment [5]; 10 to 100 nM in experiment [6].

Regarding `CCc1cccc(-c2cnc(C(=O)NCCOCCNCC(=O)N3CCN(C(=O)c4cc(Cc5n[nH]c(=O)c6ccccc56)ccc4F)CC3)c(NC(C)=O)c2)c1` [Compound I-403], the IC50 in experiment [1] is less than 1 nM; in experiment [2], 10 to 100 nM; in experiment [3], 10 to 100 nM; in experiment [4], 10 to 100 nM; in experiment [5], less than 10 nM; in experiment [6], 100 to 1000 nM.

As for `O=C(NC(C(=O)N1CCC(OC2CCN(CC(=O)N3CCN(C(=O)c4cc(Cc5n[nH]c(=O)c6ccccc56)ccc4F)CC3)CC2)CC1)C1CCCCC1)c1cccc(C2CCCN(C(=O)CNCc3ccc(F)cc3F)C2)c1` (stereo not drawn) [Compound I-369], the IC50 in experiment [1] was less than 1 nM; in experiment [2] it was 10 to 100 nM; in experiment [3], 10 to 100 nM; in experiment [4], 100 to 1000 nM; in experiment [5], less than 10 nM; in experiment [6], 100 to 1000 nM.
